Columns and labels:
[1] = solubility in water; type: physicochemical
[2] = tested on: mast cells degranulation; experiment: in vivo mast cell degranulation induced by substance P in the auricular pinna, systemic subcutaneous pretreatment; set-up: species or system Sprague Dawley rats
Experimental: • 2 weeks old Sprague […] rats, provided by Charles River from Calco, were locally treated by intradermal injection on the auricular pinna with the compounds in question at the dose of 0.5mg/kg, in a buffered aqueous solution at physiological pH. After 10 minutes a local administration, still by intradermal route, followed, of the substance P (10^-4 M), able to induce a mast cells degranulation response. After 30' from the subtance P administration, the animals were sacrificed and the relative tissue samples (pinna) were taken, for an analysis of the morphological aspect of the mast cells residing in the connectival tissues after fixation and coloration with toluidine blue. The inhibition degree in mast cells degranulation in the tissues of the animals treated with the compounds under question, and compared with those of animals treated only with the physiological degranulation factor (substance P) was considered as a parameter for the biological activity. […] The pharmacologic activity of the compounds under question was also verified under conditions of a systemic subcutaneous administration. In this case the animals were firstly treated with 20 mg/kg of the substances under question and after 30 minutes were exposed to the degranulation stimulus with the substance P (10^-6 M) in the auricular pinna. Then we proceeded as previously described. In Tab.2 the obtained results are reported on an average of 500-800 cells. Tab.2

[3] = solubility in organic solvents; type: physicochemical; details: organic solvent or mixture
[4] = tested on: mast cells degranulation; experiment: in vivo mast cell degranulation induced by substance P in the auricular pinna, intradermal (local) pretreatment; set-up: species or system Sprague Pawley rats; details: compound 0.5 mg/kg intradermal on the auricular pinna, substance P (10⁻⁴ M) intradermal after 10 minutes, sacrifice 30' later
Experimental: • 2 weeks old Sprague Pawley rats, provided by Charles River from Calco, were locally treated by intradermal injection on the auricular pinna with the compounds in question at the dose of 0.5mg/kg, in a buffered aqueous solution at physiological pH. After 10 minutes a local administration, still by intradermal route, followed, of the substance P (10⁻⁴ M), able to induce a mast cells degranulation response. After 30' from the subtance P administration, the animals were sacrificed and the relative tissue samples (pinna) were taken, for an analysis of the morphological aspect of the mast cells residing in the connectival tissues after fixation and coloration with toluidine blue. The inhibition degree in mast cells degranulation in the tissues of the animals treated with the compounds under question, and compared with those of animals treated only with the physiological degranulation factor (substance P) was considered as a parameter for the biological activity.

[5] = tested on: Peritoneal mast cells of rat; experiment: in vitro degranulation of cultured peritoneal mast cells stimulated with substance P; type: cell-based
Experimental: Peritoneal mast cells of rat were taken according to the standard methodology described by Lagunoff (1975, Tech. Biochem. Biophys. Morphol. , 2, pp. 289-305).
The cells were then cultured in MEM which 10% fetal calf serum was added to and then incubated in a Haereus^R incubator for 30 minutes.
The derivatives under question at the concentration of 10⁻⁵ M were added to the incubation medium .
At the end of the incubation the physiological degranulation stimulus represented by the substance P (10⁻⁴) was added.
The cells were then centrifugated in order to remove the supernatant formed by the incubation medium and placed onto the slide after coloration with toluidine blue, for the analysis of the morphological aspect at the optical microcope.
Also under these conditions the parameter to be considered was the percentage of degranulated cells after stimulation with the Substance P.

[6] = compound 20 mg/kg subcutaneous, substance P (10⁻⁶ M) in the auricular pinna after 30 minutes, average of 500-800 cells
[7] = compound 10⁻⁵ M in the incubation medium, 30 minutes, then substance P (10⁻⁴)

**Q.** For `O=C(CC(O)C(=O)NCCO)NCCO` (racemic) [(8), N,N'-bis (2-hydroxyethyl)-(+/-)2-hydroxysuccinimide], which solubility [1] is on record?
**A.** The solubility was > 10 mg/mL.

**Q.** What about the “% of cells undergoing degranulation” value [2, 6] of the same compound?
**A.** Its value is 31%.

**Q.** What about the solubility ([3]; in DMSO) of the same compound?
**A.** The solubility was > 10 mg/mL.

**Q.** Which solubility [1] does the source give for `O=C(/C=C/C(=O)NCCO)NCCO` [(1), N-fumaroylethanolamide] here?
**A.** The solubility was < 20 mg/mL.

**Q.** And the “% of cells undergoing degranulation” value [2, 6]?
**A.** The value was 28%.

**Q.** And the “% of cells undergoing degranulation” value [4]?
**A.** The value was 40%.

**Q.** What about the “% of cells undergoing degranulation” value [5, 7] of the same compound?
**A.** The value was 35%.

**Q.** What about the solubility ([3]; in DMSO) of the same compound?
**A.** Its solubility is < 20 mg/mL.

**Q.** And the solubility ([3]; in hot ethanol)?
**A.** Its solubility is < 20 mg/mL.

**Q.** Which results are given for `O=C(/C=C/C(=O)N(CCO)CCO)N(CCO)CCO` [(2), N,N,N',N'-tetra (2-hydroxyethyl)-fumaroyl-diamide]?
**A.** solubility [1]: > 10 mg/mL; % of cells undergoing degranulation [2, 6]: 32%; % of cells undergoing degranulation [5, 7]: 30%; solubility ([3]; in DMSO): > 10 mg/mL; solubility ([3]; in hot ethanol): > 10 mg/mL

**Q.** For `O=C(CCCCCCCC(=O)NCCO)NCCO` [(3), N,N'-bis-(2-hydroxyethyl)-nonandiamide], which “% of cells undergoing degranulation” value [2, 6] is on record?
**A.** The value was 30%.

**Q.** And the “% of cells undergoing degranulation” value [4]?
**A.** The value was 30%.

**Q.** What about the “% of cells undergoing degranulation” value [5, 7] of the same compound?
**A.** Its value is 30%.

**Q.** What about the solubility ([3]; solvent not stated) of the same compound?
**A.** The solubility was > 10 mg/mL.

**Q.** With `O=C(CCC(=O)NCCO)NCCO` [(4), N,N'-bis-(2-hydroxyethyl)-succinamide] as the compound, how does the “% of cells undergoing degranulation” value [2, 6] read?
**A.** Its value is 32%.

**Q.** And the “% of cells undergoing degranulation” value [5, 7]?
**A.** The value was 35%.

**Q.** What about the solubility ([3]; in DMSO) of the same compound?
**A.** The solubility was > 10 mg/mL.

**Q.** With `O=C(NCCO)C(=O)NCCO` [(5), N,N'-bis(2-hydroxyethyl)-oxalyldiamide] as the compound, how does the solubility [1] read?
**A.** The solubility was > 10 mg/mL.

**Q.** What about the “% of cells undergoing degranulation” value [2, 6] of the same compound?
**A.** Its value is 45.5%.

**Q.** And the solubility ([3]; in DMSO)?
**A.** The solubility was > 10 mg/mL.

**Q.** With `O=C(/C=C/CCCCCCCCC(=O)NCCO)NCCO` [(6), N,N'-bis (2-hydroxyethyl)trans-2-dodecendiamide] as the compound, how does the solubility ([1]; at 95 °C) read?
**A.** Its solubility is > 10 mg/mL.

**Q.** And the “% of cells undergoing degranulation” value [2, 6]?
**A.** Its value is 33.6%.

**Q.** What about the solubility ([3]; in DMSO) of the same compound?
**A.** The solubility was > 10 mg/mL.

**Q.** And the solubility ([3]; in ethanol)?
**A.** Its solubility is > 10 mg/mL.

**Q.** For `O=C(CC(=O)NCCO)NCCO` [(7), N,N' -(2-hydroxyethyl)-malondiamide], which solubility [1] is on record?
**A.** Its solubility is > 10 mg/mL.

**Q.** What about the “% of cells undergoing degranulation” value [2, 6] of the same compound?
**A.** The value was 35%.

**Q.** What about the solubility ([3]; in DMSO) of the same compound?
**A.** Its solubility is > 5 mg/mL.

**Q.** And the solubility ([3]; in ethanol)?
**A.** Its solubility is > 10 mg/mL.

**Q.** What does the source list for `O=C(NCCO)[C@H](O)[C@@H](O)C(=O)NCCO` [(9), (R,R)-(+) 2,3-dihydroxy-N,N'-bis (2-hydroxyethyl)-succinamide]?
**A.** solubility [1]: > 10 mg/mL; % of cells undergoing degranulation [2, 6]: 32%; solubility ([3]; in DMSO): > 10 mg/mL

**Q.** Which results are given for `CC(O)CNC(=O)/C=C/C(=O)NCC(C)O` (stereo not shown) [(10), N,N'-bis (2-hydroxypropyl)-fumaroyldiamide]?
**A.** solubility [1]: > 10 mg/mL; % of cells undergoing degranulation [2, 6]: 38%; solubility ([3]; in DMSO): > 10 mg/mL

**Q.** Which results are given for `O=C(NCCO)c1cc(=O)c2c(OCC(O)COc3cccc4oc(C(=O)NCCO)cc(=O)c34)cccc2o1` [(11), N,N'-bis (2-hydroxyethyl)-cromoglycholyldiamide]?
**A.** solubility [1]: > 10 mg/mL; % of cells undergoing degranulation [2, 6]: 28.6%; solubility ([3]; in DMSO): > 10 mg/mL

**Q.** Which solubility [1] does the source give for `NC(CC(=O)NCCO)C(=O)NCCO` (stereo not shown) [(12), N,N'-bis (2-hydroxyethyl)-aspartyldiamide] here?
**A.** The solubility was > 10 mg/mL.

**Q.** And the “% of cells undergoing degranulation” value [2, 6]?
**A.** Its value is 30%.

**Q.** And the solubility ([3]; in DMSO)?
**A.** The solubility was > 10 mg/mL.

**Q.** Which solubility [1] does the source give for `O=C(NCCO)c1ccccc1C(=O)NCCO` [(13), N,N' -bis (2-hydroxyethyl)-phthaloyldiamide] here?
**A.** The solubility was > 10 mg/mL.

**Q.** And the “% of cells undergoing degranulation” value [2, 6]?
**A.** The value was 35.5%.

**Q.** What about the solubility ([3]; in ethanol) of the same compound?
**A.** Its solubility is > 10 mg/mL.

**Q.** Which solubility [1] does the source give for `O=C(/C=C/C=C/C(=O)NCCO)NCCO` [(14), N,N'-bis (2-hydroxyethyl)-trans,trans-muconoyldiamide] here?
**A.** The solubility was > 10 mg/mL.

**Q.** And the “% of cells undergoing degranulation” value [2, 6]?
**A.** Its value is 40.2%.

**Q.** What about the solubility ([3]; in DMSO) of the same compound?
**A.** The solubility was > 10 mg/mL.

**Q.** What does the source list for `O=C(CCCC(=O)NCCO)NCCO` [(15), N,N'-bis-(2-hydroxyethyl)-glutaroyldiamide]?
**A.** solubility [1]: > 10 mg/mL; % of cells undergoing degranulation [2, 6]: 30%; solubility ([3]; in DMSO): > 10 mg/mL

**Q.** Which results are given for `CSCC[C@H](NC(=O)[C@H](CC(C)C)NC(=O)CNC(=O)[C@H](Cc1ccccc1)NC(=O)[C@H](Cc1ccccc1)NC(=O)[C@H](CCC(N)=O)NC(=O)[C@H](CCC(N)=O)NC(=O)[C@@H]1CCCN1C(=O)[C@H](CCCCN)NC(=O)[C@@H]1CCCN1C(=O)[C@@H](N)CCCNC(=N)N)C(N)=O` [substance P, reference compound]?
**A.** % of cells undergoing degranulation ([2]; substance P (10⁻⁶ M) in the auricular pinna alone, no pretreatment): 92%; % of cells undergoing degranulation ([5]; substance P (10⁻⁴) alone): 96%
